According to patent US12681015B2, “Methods for predicting patient response to DMARDs” (Queen Mary University of London, priority 2019, dated 2026):

System: plasma SPM concentrations in mice
Experiment: MTX given intravenously to mice, plasma SPM by LC-MS/MS lipid mediator profiling
Assay type: in vivo
Settings: blood after 1 hour; for plasma 4S,14S-diHDHA concentration in mice, Mean ± SEM / plasma 5S,15S-diHETE concentration in mice, Mean ± SEM / plasma 7S,14S-diHDHA concentration in mice, Mean ± SEM / plasma 7S,14S-diHDPA concentration in mice, Mean ± SEM / plasma 10S,17S-diHDPA concentration in mice, Mean ± SEM / plasma 13,14-dehydro-15-oxo-LXA4 concentration in mice, Mean ± SEM / plasma 14-oxo-MaR1 concentration in mice, Mean ± SEM / plasma 15-oxo-LXA4 concentration in mice, Mean ± SEM / plasma 15R-LXA4 concentration in mice, Mean ± SEM / plasma 15R-LXB4 concentration in mice, Mean ± SEM / plasma 17R-PD1 concentration in mice, Mean ± SEM / plasma 17R-RvD1 concentration in mice, Mean ± SEM / plasma 17R-RvD3 concentration in mice, Mean ± SEM / plasma 22-OH-MaR1 concentration in mice, Mean ± SEM / plasma 22-OH-PD1 concentration in mice, Mean ± SEM / plasma LXA4 concentration in mice, Mean ± SEM / plasma LXB4 concentration in mice, Mean ± SEM / plasma MaR1 concentration in mice, Mean ± SEM / plasma MaR1n-3 DPA concentration in mice, Mean ± SEM / plasma MaR2 concentration in mice, Mean ± SEM / plasma PD1 concentration in mice, Mean ± SEM / plasma PD1n-3 DPA concentration in mice, Mean ± SEM / plasma PDx concentration in mice, Mean ± SEM / plasma RvD1 concentration in mice, Mean ± SEM / plasma RvD1n-3 DPA concentration in mice, Mean ± SEM / plasma RvD2 concentration in mice, Mean ± SEM / plasma RvD2n-3 DPA concentration in mice, Mean ± SEM / plasma RvD3 concentration in mice, Mean ± SEM / plasma RvD4 concentration in mice, Mean ± SEM / plasma RvD5 concentration in mice, Mean ± SEM / plasma RvD5n-3 DPA concentration in mice, Mean ± SEM / plasma RvD6 concentration in mice, Mean ± SEM / plasma RvE1 concentration in mice, Mean ± SEM / plasma RvE2 concentration in mice, Mean ± SEM / plasma RvE3 concentration in mice, Mean ± SEM / plasma RvT1 concentration in mice, Mean ± SEM / plasma RvT2 concentration in mice, Mean ± SEM / plasma RvT3 concentration in mice, Mean ± SEM / plasma RvT4 concentration in mice, Mean ± SEM: intravenous injection
Description: Plasma was obtained by centrifugation and peripheral blood SPM concentrations were determined using LC-MS/MS based lipid mediator profiling. (A) OPLS-DA analysis of plasma SPM concentrations. Colored spherical areas display 95% confidence region of respective incubations. […] Results for A, B are representative of n=6 donors from three distinct experiments. […] Blood was then collected after 1 hour and SPM concentrations were determined using LC-MS/MS based lipid mediator profiling (D) oPLS-DA analysis of plasma SPM concentrations. Colored areas display 95% confidence region of respective incubations. […] Results are representative of n=4 mice per group and experiments were conducted on two distinct occasions.
Plasma was obtained from peripheral blood of healthy volunteers, patients and mouse following centrifugation at 1500×g for 10 min at room temperature. Paws were collected and immediately transferred to liquid nitrogen prior to homogenization in 1 ml ice cold MeOH and homogenized using a glass dounce. All samples for LC-MS/MS-based profiling were extracted using solid-phase extraction columns as in Walker, M. E., Souza, P. R., Colas, R. A. & Dalli, J. “13-Series resolvins mediate the leukocyte-platelet actions of atorvastatin and pravastatin in inflammatory arthritis.” FASEB J 31, 3636-3648 (2017), the contents of which are incorporated herein by reference. Prior to sample extraction, deuterated internal standards, representing each region in the chromatographic analysis (500 pg each) were added to facilitate quantification. Samples were kept at −20° C. for a minimum of 45 min to allow protein precipitation. Supernatants were subjected to solid phase extraction, methyl formate fraction collected, brought to dryness and suspended in phase (methanol/water, 1:1, vol/vol) for injection on a Shimadzu LC-20AD HPLC and a Shimadzu SIL-20AC autoinjector, paired with a QTrap 5500 or QTrap 6500 plus (Sciex). An Agilent Poroshell 120 EC-C18 column (100 mm×4.6 mm×2.7 μm) was kept at 50° C. and mediators eluted using a mobile phase consisting of methanol/water/acetic acid of 20:80:0.01 (vol/vol/vol) that was ramped to 50:50:0.01 (vol/vol/vol) over 0.5 min and then to 80:20:0.01 (vol/vol/vol) from 2 min to 11 min, maintained till 14.5 min and then rapidly ramped to 98:2:0.01 (vol/vol/vol) for the next 0.1 min. This was subsequently maintained at 98:2:0.01 (vol/vol/vol) for 5.4 min, and the flow rate was maintained at 0.5 ml/min. QTrap 5500 or QTrap 6500 plus were operated using a multiple reaction monitoring method as in Walker, M. E., Souza, P. R., Colas, R. A. & Dalli, J. “13-Series resolvins mediate the leukocyte-platelet actions of atorvastatin and pravastatin in inflammatory arthritis.” FASEB J 31, 3636-3648 (2017), the contents of which are incorporated herein by reference. Each lipid mediator was identified using established criteria including matching retention time to synthetic or authentic standards and at least 6 diagnostic ions (Walker, M. E., Souza, P. R., Colas, R. A. & Dalli, J. “13-Series resolvins mediate the leukocyte-platelet actions of atorvastatin and pravastatin in inflammatory arthritis.” FASEB J 31, 3636-3648 (2017), the contents of which are incorporated herein by reference).

[1] = mice, MTX 1 μg/mouse or 22 μg/mouse intravenous

CN(Cc1cnc2nc(N)nc(N)c2n1)c1ccc(C(=O)N[C@@H](CCC(=O)O)C(=O)O)cc1 [MTX, Methotrexate]
plasma 4S,14S-diHDHA concentration in mice, Mean ± SEM (1 μg/mouse): 18.38 ± 6.59 | plasma 5S,15S-diHETE concentration in mice, Mean ± SEM (1 μg/mouse): 14.61 ± 6.53 | plasma 7S,14S-diHDHA concentration in mice, Mean ± SEM (1 μg/mouse): 0.00 ± 0.00 | plasma 7S,14S-diHDPA concentration in mice, Mean ± SEM (1 μg/mouse): 0.00 ± 0.00 | plasma 10S,17S-diHDPA concentration in mice, Mean ± SEM (1 μg/mouse): 2.41 ± 0.97 | plasma 13,14-dehydro-15-oxo-LXA4 concentration in mice, Mean ± SEM (1 μg/mouse): 0.65 ± 0.21 | plasma 14-oxo-MaR1 concentration in mice, Mean ± SEM (1 μg/mouse): 3.44 ± 0.37 | plasma 15-oxo-LXA4 concentration in mice, Mean ± SEM (1 μg/mouse): 3.53 ± 1.62 | plasma 15R-LXA4 concentration in mice, Mean ± SEM (1 μg/mouse): 6.41 ± 0.78 | plasma 15R-LXB4 concentration in mice, Mean ± SEM (1 μg/mouse): 3.90 ± 1.80 | plasma 17R-PD1 concentration in mice, Mean ± SEM (1 μg/mouse): 10.50 ± 4.91 | plasma 17R-RvD1 concentration in mice, Mean ± SEM (1 μg/mouse): 0.00 ± 0.00 | plasma 17R-RvD3 concentration in mice, Mean ± SEM (1 μg/mouse): 4.26 ± 0.87 | plasma 22-OH-MaR1 concentration in mice, Mean ± SEM (1 μg/mouse): 0.00 ± 0.00 | plasma 22-OH-PD1 concentration in mice, Mean ± SEM (1 μg/mouse): 0.00 ± 0.00 | plasma LXA4 concentration in mice, Mean ± SEM (1 μg/mouse): 1.06 ± 0.20 | plasma LXB4 concentration in mice, Mean ± SEM (1 μg/mouse): 16.93 ± 1.92 | plasma MaR1 concentration in mice, Mean ± SEM (1 μg/mouse): 71.74 ± 20.71 | plasma MaR1n-3 DPA concentration in mice, Mean ± SEM (1 μg/mouse): 0.83 ± 0.34 | plasma MaR2 concentration in mice, Mean ± SEM (1 μg/mouse): 2.05 ± 0.39 | plasma PD1 concentration in mice, Mean ± SEM (1 μg/mouse): 10.13 ± 4.31 | plasma PD1n-3 DPA concentration in mice, Mean ± SEM (1 μg/mouse): 0.00 ± 0.00 | plasma PDx concentration in mice, Mean ± SEM (1 μg/mouse): 17.23 ± 1.32 | plasma RvD1 concentration in mice, Mean ± SEM (1 μg/mouse): 1.39 ± 0.59 | plasma RvD1n-3 DPA concentration in mice, Mean ± SEM (1 μg/mouse): 0.67 ± 0.35 | plasma RvD2 concentration in mice, Mean ± SEM (1 μg/mouse): 2.60 ± 1.05 | plasma RvD2n-3 DPA concentration in mice, Mean ± SEM (1 μg/mouse): 4.54 ± 1.98 | plasma RvD3 concentration in mice, Mean ± SEM (1 μg/mouse): 1.30 ± 0.56 | plasma RvD4 concentration in mice, Mean ± SEM (1 μg/mouse): 3.70 ± 0.70 | plasma RvD5 concentration in mice, Mean ± SEM (1 μg/mouse): 1.64 ± 0.67 | plasma RvD5n-3 DPA concentration in mice, Mean ± SEM (1 μg/mouse): 4.02 ± 0.79 | plasma RvD6 concentration in mice, Mean ± SEM (1 μg/mouse): 1.72 ± 0.72 | plasma RvE1 concentration in mice, Mean ± SEM (1 μg/mouse): 0.54 ± 0.25 | plasma RvE2 concentration in mice, Mean ± SEM (1 μg/mouse): 1.70 ± 0.52 | plasma RvE3 concentration in mice, Mean ± SEM (1 μg/mouse): 6.22 ± 1.39 | plasma RvT1 concentration in mice, Mean ± SEM (1 μg/mouse): 10.18 ± 2.01 | plasma RvT2 concentration in mice, Mean ± SEM (1 μg/mouse): 0.00 ± 0.00 | plasma RvT3 concentration in mice, Mean ± SEM (1 μg/mouse): 0.63 ± 0.28 | plasma RvT4 concentration in mice, Mean ± SEM (1 μg/mouse): 1.40 ± 0.64 | plasma 4S,14S-diHDHA concentration in mice, Mean ± SEM (22 μg/mouse): 1.43 ± 0.64 | plasma 5S,15S-diHETE concentration in mice, Mean ± SEM (22 μg/mouse): 12.65 ± 5.37 | plasma 7S,14S-diHDHA concentration in mice, Mean ± SEM (22 μg/mouse): 22.10 ± 8.55 | plasma 7S,14S-diHDPA concentration in mice, Mean ± SEM (22 μg/mouse): 0.64 ± 0.55 | plasma 10S,17S-diHDPA concentration in mice, Mean ± SEM (22 μg/mouse): 0.52 ± 0.45 | plasma 13,14-dehydro-15-oxo-LXA4 concentration in mice, Mean ± SEM (22 μg/mouse): 0.20 ± 0.15 | plasma 14-oxo-MaR1 concentration in mice, Mean ± SEM (22 μg/mouse): 0.81 ± 0.41 | plasma 15-oxo-LXA4 concentration in mice, Mean ± SEM (22 μg/mouse): 3.93 ± 1.01 | plasma 15R-LXA4 concentration in mice, Mean ± SEM (22 μg/mouse): 6.20 ± 1.44 | plasma 15R-LXB4 concentration in mice, Mean ± SEM (22 μg/mouse): 2.17 ± 0.89 | plasma 17R-PD1 concentration in mice, Mean ± SEM (22 μg/mouse): 1.41 ± 0.61 | plasma 17R-RvD1 concentration in mice, Mean ± SEM (22 μg/mouse): 0.26 ± 0.30 | plasma 17R-RvD3 concentration in mice, Mean ± SEM (22 μg/mouse): 0.67 ± 0.65 | plasma 22-OH-MaR1 concentration in mice, Mean ± SEM (22 μg/mouse): 0.00 ± 0.00 | plasma 22-OH-PD1 concentration in mice, Mean ± SEM (22 μg/mouse): 0.00 ± 0.00 | plasma LXA4 concentration in mice, Mean ± SEM (22 μg/mouse): 0.56 ± 0.15 | plasma LXB4 concentration in mice, Mean ± SEM (22 μg/mouse): 12.72 ± 1.68 | plasma MaR1 concentration in mice, Mean ± SEM (22 μg/mouse): 37.97 ± 11.63 | plasma MaR1n-3 DPA concentration in mice, Mean ± SEM (22 μg/mouse): 0.00 ± 0.00 | plasma MaR2 concentration in mice, Mean ± SEM (22 μg/mouse): 1.28 ± 0.72 | plasma PD1 concentration in mice, Mean ± SEM (22 μg/mouse): 9.99 ± 2.47 | plasma PD1n-3 DPA concentration in mice, Mean ± SEM (22 μg/mouse): 0.28 ± 0.24 | plasma PDx concentration in mice, Mean ± SEM (22 μg/mouse): 10.36 ± 2.79 | plasma RvD1 concentration in mice, Mean ± SEM (22 μg/mouse): 0.14 ± 0.12 | plasma RvD1n-3 DPA concentration in mice, Mean ± SEM (22 μg/mouse): 0.33 ± 0.48 | plasma RvD2 concentration in mice, Mean ± SEM (22 μg/mouse): 2.99 ± 0.66 | plasma RvD2n-3 DPA concentration in mice, Mean ± SEM (22 μg/mouse): 3.72 ± 3.41 | plasma RvD3 concentration in mice, Mean ± SEM (22 μg/mouse): 0.18 ± 0.66 | plasma RvD4 concentration in mice, Mean ± SEM (22 μg/mouse): 3.88 ± 0.55 | plasma RvD5 concentration in mice, Mean ± SEM (22 μg/mouse): 0.00 ± 0.00 | plasma RvD5n-3 DPA concentration in mice, Mean ± SEM (22 μg/mouse): 0.00 ± 0.00 | plasma RvD6 concentration in mice, Mean ± SEM (22 μg/mouse): 0.00 ± 0.00 | plasma RvE1 concentration in mice, Mean ± SEM (22 μg/mouse): 0.00 ± 0.00 | plasma RvE2 concentration in mice, Mean ± SEM (22 μg/mouse): 0.96 ± 0.22 | plasma RvE3 concentration in mice, Mean ± SEM (22 μg/mouse): 0.77 ± 0.64 | plasma RvT1 concentration in mice, Mean ± SEM (22 μg/mouse): 9.49 ± 5.15 | plasma RvT2 concentration in mice, Mean ± SEM (22 μg/mouse): 0.00 ± 0.00 | plasma RvT3 concentration in mice, Mean ± SEM (22 μg/mouse): 0.87 ± 0.48 | plasma RvT4 concentration in mice, Mean ± SEM (22 μg/mouse): 2.07 ± 1.16 | ALOX15-derived SPM including RvT1, RvT4 and RvD5n-3 DPA [1]: upregulation | peripheral blood SPM profile [1]: dose-dependent shift
